# Patent US7601716B2, “Pyridopyrazines and derivatives thereof as ALK and c-Met inhibitors” (Cephalon, Inc., priority 2006, dated 2009)
# Assays:
# [1] = target: T1, c-Met (cytoplasmic domain) (Homo sapiens, UniProt P08581); experiment: c-Met Kinase Assay (ELISA/TRF, PLC-γ substrate); assay type: biochemical; details: 3 μM ATP (Km level); read-out: c-Met Kinase Inhibition (IC50)
# T1 construct: Reactions were initiated with 30 ng/mL c-Met (cytoplasmic domain, Invitrogen Corporation #PV3143); purchased Invitrogen Corporation PV3143
# Method in brief: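 Readout is TRF of europium anti-phosphotyrosine (PT66) bound to GST–PLC-γ substrate coated at 10 μg/mL, after a 15 min, 37 °C reaction started with 30 ng/mL c-Met cytoplasmic domain. Percent inhibition plotted against log compound concentration and fitted (variable slope) for IC50.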
# [2] = target: baculovirus-expressed ALK (Homo sapiens, UniProt Q9UM73); experiment: ALK Kinase Assay (ELISA/TRF, PLC-γ substrate); assay type: biochemical; details: read-out: ALK Kinase Inhibition (IC50); further: 1 µM ATP (Km level)
# Method in brief: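 ALK at 30 ng/ml phosphorylated plate-bound PLC-γ–GST fusion (coated from 10 μg/mL) during 15 minutes at 37° C. Product was detected with Eu-N1 PT66 anti-phosphotyrosine antibody and measured by time-resolved fluorescence.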
# baculovirus-expressed ALK, sequence (Q9UM73 19-1620): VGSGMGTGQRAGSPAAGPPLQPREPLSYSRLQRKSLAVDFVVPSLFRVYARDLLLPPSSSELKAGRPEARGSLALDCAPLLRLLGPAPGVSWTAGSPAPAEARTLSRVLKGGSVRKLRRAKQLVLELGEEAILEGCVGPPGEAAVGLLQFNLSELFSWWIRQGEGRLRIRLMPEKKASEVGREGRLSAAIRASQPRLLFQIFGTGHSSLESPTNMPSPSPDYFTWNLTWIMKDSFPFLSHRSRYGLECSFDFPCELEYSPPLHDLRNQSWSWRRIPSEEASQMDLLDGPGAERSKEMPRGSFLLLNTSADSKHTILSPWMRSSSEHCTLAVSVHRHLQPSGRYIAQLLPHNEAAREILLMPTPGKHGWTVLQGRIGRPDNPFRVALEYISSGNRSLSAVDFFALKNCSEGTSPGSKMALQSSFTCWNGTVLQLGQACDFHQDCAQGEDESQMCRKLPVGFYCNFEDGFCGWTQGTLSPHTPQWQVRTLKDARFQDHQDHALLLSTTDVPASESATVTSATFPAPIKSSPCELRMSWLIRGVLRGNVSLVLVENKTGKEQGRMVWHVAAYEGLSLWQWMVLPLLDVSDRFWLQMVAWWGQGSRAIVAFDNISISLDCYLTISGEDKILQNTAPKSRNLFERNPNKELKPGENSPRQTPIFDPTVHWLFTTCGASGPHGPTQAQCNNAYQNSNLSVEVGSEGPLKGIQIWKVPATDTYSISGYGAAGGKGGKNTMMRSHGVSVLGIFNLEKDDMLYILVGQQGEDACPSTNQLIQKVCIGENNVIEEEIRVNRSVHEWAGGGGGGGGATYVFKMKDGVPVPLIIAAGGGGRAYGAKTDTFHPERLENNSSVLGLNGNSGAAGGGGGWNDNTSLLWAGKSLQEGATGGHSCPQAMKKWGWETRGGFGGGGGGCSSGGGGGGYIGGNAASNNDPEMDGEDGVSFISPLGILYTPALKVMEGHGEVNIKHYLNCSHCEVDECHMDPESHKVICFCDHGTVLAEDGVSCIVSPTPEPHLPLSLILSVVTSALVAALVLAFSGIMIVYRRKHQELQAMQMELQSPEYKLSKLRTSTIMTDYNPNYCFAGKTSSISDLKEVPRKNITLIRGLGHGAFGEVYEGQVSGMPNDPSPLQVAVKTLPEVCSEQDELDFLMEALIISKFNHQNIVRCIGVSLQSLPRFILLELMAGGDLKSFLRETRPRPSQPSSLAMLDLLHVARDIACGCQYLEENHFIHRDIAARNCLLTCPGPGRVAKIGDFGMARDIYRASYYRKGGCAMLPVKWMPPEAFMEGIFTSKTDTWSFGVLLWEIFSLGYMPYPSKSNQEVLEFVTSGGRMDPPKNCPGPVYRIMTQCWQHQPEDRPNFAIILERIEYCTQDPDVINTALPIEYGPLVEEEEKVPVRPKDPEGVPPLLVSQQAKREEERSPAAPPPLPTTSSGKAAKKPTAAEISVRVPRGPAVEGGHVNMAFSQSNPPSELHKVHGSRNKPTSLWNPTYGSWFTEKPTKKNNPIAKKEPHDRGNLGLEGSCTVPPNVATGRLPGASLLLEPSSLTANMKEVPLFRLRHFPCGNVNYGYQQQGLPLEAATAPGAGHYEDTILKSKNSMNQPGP
# T1 sequence (P08581 956-1390 limits assumed): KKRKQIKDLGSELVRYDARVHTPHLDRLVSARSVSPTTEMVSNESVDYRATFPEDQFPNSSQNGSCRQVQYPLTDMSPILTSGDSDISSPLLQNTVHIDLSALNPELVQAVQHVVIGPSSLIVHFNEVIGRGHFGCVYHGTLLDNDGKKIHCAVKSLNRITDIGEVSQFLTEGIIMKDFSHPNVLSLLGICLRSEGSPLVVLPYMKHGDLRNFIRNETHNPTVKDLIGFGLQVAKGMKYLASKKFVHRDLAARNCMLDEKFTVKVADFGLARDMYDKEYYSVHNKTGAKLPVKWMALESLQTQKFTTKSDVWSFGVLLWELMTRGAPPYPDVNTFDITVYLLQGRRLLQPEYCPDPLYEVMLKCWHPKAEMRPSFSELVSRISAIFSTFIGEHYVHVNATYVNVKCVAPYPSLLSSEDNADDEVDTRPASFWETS
Compound,melting point,IC50 [1],IC50 [2]
"CC1(C)CN(Cc2cc(F)ccc2F)c2cc(-c3ccc(C(=O)N4CCC[C@H]4CN4CCCC4)cc3)cnc2N1 [Example 96, {4-[1-(2,5-Difluorobenzyl)-3,3-dimethyl-1,2,3,4-tetrahydropyrido[2,3-b]pyrazin-7-yl]phenyl}-((S)-2-((pyrrolidin-1-yl)methyl)pyrrolidin-1-yl)methanone]",74 to 77 °C,10 to 100 µM,1 to 10 µM
"CC1(C)Nc2ncc(I)cc2NC1=O [Example 91, 7-Iodo-3,3-dimethyl-3,4-dihydro-1H-pyrido[2,3-b]pyrazin-2-one]",> 300 °C,10 to 100 µM,> 100 µM
"O=C1CNc2ncc(-c3ccc(NS(=O)(=O)CCN4CCOCC4)cc3)cc2N1Cc1cc(F)ccc1F [Example 50, 2-Morpholin-4-yl-ethanesulfonic acid{4-[1-(2,5-difluorobenzyl)-2-oxo-1,2,3,4-tetrahydropyrido[2,3-b]pyrazin-7-yl]phenyl}-amide]",225 °C,> 100 µM,0.1 to 1 µM
"Clc1ccc(Cl)c(CN2CCNc3ncc(C4=CCNCC4)cc32)c1 [Example 131, 1-(2,5-Dichlorobenzyl)-7-(1,2,3,6-tetrahydropyridin-4-yl)-1,2,3,4-tetrahydropyrido[2,3-b]pyrazine]",133 to 136 °C,1 to 10 µM,1 to 10 µM
"O=C(c1ccc(-c2cnc3c(c2)N(Cc2ccccc2)CCN3)cc1)N1CCC(N2CCCC2)CC1 [Example 39, [4-(1-Benzyl-1,2,3,4-tetrahydropyrido[2,3-b]pyrazin-7-yl)phenyl]-(4-(pyrrolidin-1-yl)piperidin-1-yl)methanone]",120 °C,10 to 100 µM,1 to 10 µM
"CN1CCN(C(=O)c2ccc(-c3cnc4c(c3)N(Cc3cc(F)ccc3F)CC(C)(C)N4)cc2)CC1 [Example 97, {4-[1-(2,5-Difluorobenzyl)-3,3-dimethyl-1,2,3,4-tetrahydropyrido[2,3-b]pyrazin-7-yl]phenyl}-(4-methylpiperazin-1-yl)methanone]",191 to 192 °C,> 100 µM,10 to 100 µM
"CN(C)CCCCCCNC(=O)c1ccc(-c2cnc3c(c2)N(Cc2ccccc2)C(=O)CN3)cc1 [Example 16, 4-(1-benzyl-2-oxo-1,2,3,4-tetrahydropyrido[2,3-b]pyrazin-7-yl)-N-(6-dimethylaminohexyl)benzamide]",> 200 °C,10 to 100 µM,1 to 10 µM
"O=C(O)c1ccc(-c2cnc3c(c2)N(Cc2cc(F)ccc2F)C(=O)CN3)cc1 [Example 56, 4-[1-(2,5-Difluorobenzyl)-2-oxo-1,2,3,4-tetrahydropyrido[2,3-b]pyrazin-7-yl]benzoic acid]",> 300 °C,10 to 100 µM,1 to 10 µM
"CN1CCN(C(=O)c2ccc(-c3cnc4c(c3)N(Cc3cc(F)ccc3F)C(=O)C(C)(C)N4)cc2)CC1 [Example 95, 1-(2,5-Difluorobenzyl)-3,3-dimethyl-7-[4-(4-methylpiperazine-1-carbonyl)phenyl]-3,4-dihydro-1H-pyrido[2,3-b]pyrazin-2-one]",204 to 206 °C,10 to 100 µM,1 to 10 µM
"CCOC(=O)c1ccc(-c2cnc3c(c2)N(Cc2cc(F)ccc2F)CCN3)cc1 [Example 63, 4-[1-(2,5-Difluorobenzyl)-1,2,3,4-tetrahydropyrido[2,3-b]pyrazin-7-yl]benzoic acid ethyl ester]",173 to 174 °C,> 100 µM,0.1 to 1 µM
"OC1CCNc2ncc(Br)cc21 (stereo not drawn) [Example 268, 6-bromo-1,2,3,4-tetrahydro-[1,8]naphthyridin-4-ol]",125 to 128 °C,> 100 µM,> 100 µM
"CCOC(=O)c1ccc(-c2cnc3c(c2)N(Cc2c(Cl)cccc2Cl)C(=O)CN3)cc1 [Example 139, 4-[1-(2,6-Dichlorobenzyl)-2-oxo-1,2,3,4-tetrahydropyrido[2,3-b]pyrazin-7-yl]benzoic acid ethyl ester]",226 °C,10 to 100 µM,10 to 100 µM
"Cc1noc(C)c1-c1cnc2c(c1)N(Cc1c(F)ccc(F)c1Cl)CCN2 [Example 103, 1-(2-Chloro-3,6-difluorobenzyl)-7-(3,5-dimethyl-isoxazol-4-yl)-1,2,3,4-tetrahydropyrido[2,3-b]pyrazine]",215 to 216 °C,10 to 100 µM,0.1 to 1 µM
"Fc1ccc(F)c(CN2CCNc3ncc(-c4ccc(N5CCOCC5)cc4)cc32)c1Cl [Example 108, 1-(2-Chloro-3,6-difluorobenzyl)-7-(4-morpholin-4-yl-phenyl)-1,2,3,4-tetrahydropyrido[2,3-b]pyrazine]",217 to 219 °C,10 to 100 µM,< 0.1 µM

# Continued, values first:
melting point,IC50 [1],IC50 [2],Compound
156 to 157 °C,> 100 µM,1 to 10 µM,"Fc1ccc(F)c(CN2CCNc3ncc(I)cc32)c1Cl [Example 98, 1-(2-Chloro-3,6-difluorobenzyl)-7-iodo-1,2,3,4-tetrahydropyrido[2,3-b]pyrazine]"
204 to 206 °C,> 100 µM,1 to 10 µM,"N#Cc1cnc2c(c1)N(Cc1cc(F)ccc1F)CCN2 [Example 77, 1-(2,5-Difluorobenzyl)-1,2,3,4-tetrahydropyrido[2,3-b]pyrazine-7-carbonitrile]"
225 °C,> 100 µM,10 to 100 µM,"O=C1CNc2ncc(I)cc2N1Cc1ccccc1 [Example 8, 1-Benzyl-7-iodo-3,4-dihydro-1H-pyrido[2,3-b]pyrazin-2-one]"
152 to 153 °C,10 to 100 µM,10 to 100 µM,"O=C(Cc1cc(F)ccc1F)N1CCNc2ncc(I)cc21 [Example 112, 2-(2,5-Difluorophenyl)-1-(7-iodo-3,4-dihydro-2H-pyrido[2,3-b]pyrazin-1-yl)ethanone]"
205 °C,> 100 µM,0.1 to 1 µM,"Clc1ccc(Cl)c(CN2CCNc3ncc(-c4ccc(Cl)nc4)cc32)c1 [Example 165, 7-(6-Chloropyridin-3-yl)-1-(2,5-dichlorobenzyl)-1,2,3,4-tetrahydropyrido[2,3-b]pyrazine]"
153 °C,> 100 µM,1 to 10 µM,"CCOC(=O)c1ccc(-c2cnc3c(c2)N(Cc2ccccc2OC(F)(F)F)CCN3)cc1 [Example 297, 4-{1-[2-(Trifluoromethoxy)benzyl]-1,2,3,4-tetrahydropyrido[2,3-b]pyrazin-7-yl}benzoic acid ethyl ester]"
120 to 125 °C,> 100 µM,> 100 µM,"FC(F)(F)c1ccc(Cl)c(CN2CCNc3ncc(I)cc32)c1 [Example 119, 1-(2-Chloro-5-trifluoromethylbenzyl)-7-iodo-1,2,3,4-tetrahydropyrido[2,3-b]pyrazine]"
124 to 125 °C,10 to 100 µM,0.1 to 1 µM,"CCOC(=O)c1cnc2c(c1)N(Cc1cc(F)ccc1F)CCN2 [Example 75, 1-(2,5-Difluorobenzyl)-1,2,3,4-tetrahydropyrido[2,3-b]pyrazine-7-carboxylic acid ethyl ester]"
250 °C,> 100 µM,1 to 10 µM,"O=C(O)c1ccc(-c2cnc3c(c2)N(Cc2ccccc2OC(F)(F)F)CCN3)cc1 [Example 298, 4-{1-[2-(Trifluoromethoxy)benzyl]-1,2,3,4-tetrahydropyrido[2,3-b]pyrazin-7-yl}benzoic acid]"
> 200 °C,10 to 100 µM,1 to 10 µM,"Clc1cccc(Cl)c1CN1CCNc2ncc(I)cc21 [Example 162, 1-(2,6-Dichlorobenzyl)-7-iodo-1,2,3,4-tetrahydropyrido[2,3-b]pyrazine]"
168 °C,1 to 10 µM,1 to 10 µM,"CN(C)CC#Cc1cnc2c(c1)N(Cc1cc(Cl)ccc1Cl)CCN2 [Example 173, {3-[1-(2,5-Dichlorobenzyl)-1,2,3,4-tetrahydropyrido[2,3-b]pyrazin-7-yl]prop-2-ynyl}-dimethylamine]"
153 to 154 °C,> 100 µM,10 to 100 µM,"FC(F)(F)c1ccc(CN2CCNc3ncc(I)cc32)o1 [Example 291, 7-Iodo-1-[5-(trifluoromethyl)furan-2-ylmethyl]-1,2,3,4-tetrahydropyrido[2,3-b]pyrazine]"
154 °C,> 100 µM,> 100 µM,"CCOC(=O)c1ccc(-c2cnc3c(c2)N(Cc2cc(Cl)ccc2C(F)(F)F)CCN3)cc1 [Example 193, 4-{1-[5-Chloro-2-(trifluoromethyl)benzyl]-1,2,3,4-tetrahydropyrido[2,3-b]pyrazin-7-yl}benzoic acid ethyl ester]"
216 °C,10 to 100 µM,0.1 to 1 µM,O=C(c1ccc(-c2cnc3c(c2)N(Cc2cc(Cl)ccc2C(F)(F)F)CCN3)cc1)N1CCCCC1 [Example 204]
273 °C (dec.),10 to 100 µM,> 100 µM,"O=C(O)c1cnc2c(c1)N(Cc1cc(Cl)ccc1Cl)CCN2 [Example 128, 1-(2,5-Dichlorobenzyl)-1,2,3,4-tetrahydropyrido[2,3-b]pyrazine-7-carboxylic acid]"
189 to 191 °C,> 100 µM,10 to 100 µM,"O=C1CNc2ncc(I)cc2N1Cc1ccc(C(F)(F)F)o1 [Example 290, 7-Iodo-1-[5-(trifluoromethyl)furan-2-ylmethyl]-3,4-dihydro-1H-pyrido[2,3-b]pyrazin-2-one]"
